Assay results: patent publication US20100068184A1, “LIVING BODY HEALING ACCELERATOR” (AUREO CO., LTD., priority 2006, published 2010)

How the values were obtained:
[1] = test system: leukemia-originated tumor cell P388; experiment: Anti-leukemia test (survival rate); format: in vivo, mice; details: group A, 5-FU 2.0 mg/kg oral, 40 days after implantation
Protocol: The test was carried out according to the ordinary method by using mice each with the leukemia-originated tumor cell P388 implanted therein and also by comparing survival rates of the mice after the test samples were administered. Just after the tumor was implanted, each test sample was orally administered by mixing the sample in water in a bottle for drinking water and making the mice freely drink the water. […] 10 mice were used for one test sample group.

sarcoma = experiment: Sarcoma-implanted mice: change in tumor volume; format: in vivo; details: 5-FU 20 mg/kg/day oral in drinking water (group A), vs control group
Protocol: The above result obviously indicates the characteristics of the treatment with an anticancer drug, and in this type of treatment, the anticancer drug can suppress growth of a tumor, but normal cells are damaged by toxicity of the anticancer drug. This negative aspect spoils the positive result of the treatment with an anticancer drug. […] The dose of 2 g/kg/day corresponds to 30 mg/kg/day in administration with respect to the solid content (1.5%).

[2] = test system: mouse carrying diabetes caused by streptozotocin; experiment: Test for accelerating normalization of a blood glucose level; format: in vivo, mice; details: 200 mg/kg intraperitoneal (positive control group)
Protocol: The test was performed by using mice, in each of which a diabetes was induced by streptozotocin, and also by comparing blood glucose levels before and after administration of test samples. In Table 3, the “normal group” indicates a blood glucose level in the normal state where treatment with streptozotocin is not performed. On the other hand, the “negative control group” indicates a blood glucose level in a mouse in which diabetes was generated by being subjected to treatment with streptozotocin. The “positive control group” indicates a blood glucose level when tolbutamide which was an accelerator of insulin secretion (200 mg/kg) was administered to a mouse carrying diabetes caused by streptozotocin. The “test A group” and “test B group” each indicates a blood glucose level when each of the Aureobasidium culture solution (2 g/kg and 10 g/kg) was administered to a mouse carrying diabetes caused by streptozotocin. It is to be noted that each sample was intrapenitoreally administered.
FIG. 6 is plotted with the ordinate axis indicating a blood glucose level and with the abscissa axis indicating treatment performed to each group of the tested mice. A left bar in each group represents an average value of blood glucose levels before administration of the test sample, while a right bar represent an average value of blood glucose levels after administration of the test sample.

Row | SMILES | survival rate [1] | volume of the tumor (sarcoma) | descent percentage of blood glucose level [2]
1 | O=c1[nH]cc(F)c(=O)[nH]1 [5-FU, 5-fluorouracil] | 80% | significantly restrained | 
2 | CCCCNC(=O)NS(=O)(=O)c1ccc(C)cc1 [tolbutamide] |  |  | 17.4%
